This experiment addresses Recombinant Human Poly(ADP-Ribose) Polymerase (PARP), PARP-1 (Homo sapiens (Human), UniProt P09874). The following applies: read-out: PARP-1 (Ki).
The mark [1] stands for this setting: Table 1, text calls the values EC50s.

Each structure is given as a SMILES string. Read-outs that look alike come from different tables or passages of the source.

Here are results for 37 compounds from patent US9283222B2 (priority 2006, dated 2016).

Chain of Recombinant Human Poly(ADP-Ribose) Polymerase (PARP), PARP-1 (P09874 whole entry): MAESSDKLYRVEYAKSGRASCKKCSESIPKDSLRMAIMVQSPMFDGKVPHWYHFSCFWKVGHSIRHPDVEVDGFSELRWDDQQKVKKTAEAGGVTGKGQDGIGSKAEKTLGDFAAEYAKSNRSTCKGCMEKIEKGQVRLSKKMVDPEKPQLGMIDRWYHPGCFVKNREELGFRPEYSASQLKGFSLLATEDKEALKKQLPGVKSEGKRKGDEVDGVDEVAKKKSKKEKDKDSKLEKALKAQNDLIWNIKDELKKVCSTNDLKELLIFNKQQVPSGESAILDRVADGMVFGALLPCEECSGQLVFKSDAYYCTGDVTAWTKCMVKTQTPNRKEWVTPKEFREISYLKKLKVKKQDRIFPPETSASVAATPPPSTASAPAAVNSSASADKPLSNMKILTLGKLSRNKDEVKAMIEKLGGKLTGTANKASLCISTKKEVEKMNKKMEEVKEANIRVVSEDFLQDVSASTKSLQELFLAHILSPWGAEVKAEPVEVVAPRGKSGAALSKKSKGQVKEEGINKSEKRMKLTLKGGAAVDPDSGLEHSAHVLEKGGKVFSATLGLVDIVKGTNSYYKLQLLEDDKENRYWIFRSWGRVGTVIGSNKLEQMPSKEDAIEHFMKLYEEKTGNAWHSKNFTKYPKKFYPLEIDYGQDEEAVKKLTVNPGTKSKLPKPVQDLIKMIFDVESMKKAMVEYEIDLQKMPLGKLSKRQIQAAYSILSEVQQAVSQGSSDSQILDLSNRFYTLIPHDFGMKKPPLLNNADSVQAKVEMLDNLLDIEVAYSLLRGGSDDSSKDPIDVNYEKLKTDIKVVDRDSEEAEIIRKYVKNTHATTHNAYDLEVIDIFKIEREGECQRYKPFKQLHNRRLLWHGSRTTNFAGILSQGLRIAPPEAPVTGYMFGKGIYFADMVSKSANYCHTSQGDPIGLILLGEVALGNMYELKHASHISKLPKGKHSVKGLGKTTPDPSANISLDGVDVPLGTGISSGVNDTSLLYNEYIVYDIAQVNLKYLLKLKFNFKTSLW

Turning to `O=C(NC1CCN(C(=O)c2ccncc2)CC1)c1cc(Cc2n[nH]c(=O)c3c2NCCC3)ccc1F` [Example 738, 2-fluoro-N-(1-isonicotinoylpiperidin-4-yl)-5-[(5-oxo-1,2,3,4,5,6-hexahydropyrido[2,3-d]pyridazin-8-yl)methyl]benzamide], the Ki (as a rule, a dissociation constant, usually derived from enzyme kinetics or from competition with a known ligand) under setting [1] turned out to be 0.014 µM.

Turning to `O=C(c1cc(Cc2n[nH]c(=O)c3c2NCCC3)ccc1F)N1CCN(CCO)CC1` [Example 535, 8-(4-fluoro-3-{[4-(2-hydroxyethyl)piperazin-1-yl]carbonyl}benzyl)-2,3,4,6-tetrahydropyrido[2,3-d]pyridazin-5(1H)-one], the Ki under setting [1] turned out to be 0.004 µM.

Regarding `O=C(c1cncnc1)N1CCN(C(=O)c2cc(Cc3n[nH]c(=O)c4c3CCCC4)ccc2F)CC1` [Example 733, 4-(4-fluoro-3-{[4-(pyrimidin-5-ylcarbonyl)piperazin-1-yl]carbonyl}benzyl)-5,6,7,8-tetrahydrophthalazin-1(2H)-one], the Ki under setting [1] came out at 0.0017 µM.

On to `O=C(CCN1CCCCC1)Nc1cccc(Cc2n[nH]c(=O)c3c2CCCC3)c1` [drawing 24], for which, for the setting “Table 3, H analogs versus para-F analogs”, the inhibitory constant (Ki) was found to be 0.28 µM.

With `O=C(c1cc(Cc2n[nH]c(=O)c3c2NCCC3)ccc1F)N1CCN(C(=O)C2CCCC2)CC1` [Example 640], the Ki under setting [1] is 0.0007 µM.

On to `O=C1CCCN1c1cc(-c2n[nH]c(=O)c3c2CCCC3)ccc1F` [drawing 8], for which the Ki (Table 2, A2 is C1-alkyl versus no A2 (bond)) was determined as 0.191 µM.

Take `O=C(NC1CCN(C(=O)c2cc(Cc3n[nH]c(=O)c4c3NCCC4)ccc2F)CC1)c1cccnc1` [Example 747, N-(1-{2-fluoro-5-[(5-oxo-1,2,3,4,5,6-hexahydropyrido[2,3-d]pyridazin-8-yl)methyl]benzoyl}piperidin-4-yl)nicotinamide]: the Ki under setting [1] was 0.0015 µM.

Regarding `O=C(c1cc(Cc2n[nH]c(=O)c3c2CCCC3)ccc1F)N1CCN(c2ccccc2)CC1` [Example 515, 4-{4-fluoro-3-[(4-phenylpiperazin-1-yl)carbonyl]benzyl}-5,6,7,8-tetrahydrophthalazin-1(2H)-one], the Ki under setting [1] is 0.003 µM.

Take `CCN(Cc1ccccc1)C(=O)c1cccc(Cc2n[nH]c(=O)c3c2CCCC3)c1` [Example 420, N-benzyl-N-ethyl-3-((4-oxo-3,4,5,6,7,8-hexahydrophthalazin-1-yl)methyl)benzamide]: under setting [1], the Ki was found to be 0.021 µM.

Turning to `CC(=O)N1CCN(C(=O)c2cc(Cc3n[nH]c(=O)c4c3CCCC4)ccc2F)CC1` [Example 520, 4-{3-[(4-acetylpiperazin-1-yl)carbonyl]-4-fluorobenzyl}-5,6,7,8-tetrahydrophthalazin-1(2H)-one], the Ki under setting [1] was found to be 0.0001 µM.

On to `O=C(CCCC(=O)Nc1cccc(Cc2n[nH]c(=O)c3c2CCCC3)c1)Nc1ccccc1` [Example 172, N-(3-((4-oxo-3,4,5,6,7,8-hexahydrophthalazin-1-yl)methyl)phenyl)-N′-phenylpentanediamide], for which, under setting [1], the Ki is 0.003 µM.

For the compound `O=C(NCc1ccsc1)c1cccc(Cc2n[nH]c(=O)c3c2CCCC3)c1` [Example 310, 3-((4-oxo-3,4,5,6,7,8-hexahydrophthalazin-1-yl)methyl)-N-(thien-3-ylmethyl)benzamide], under setting [1], the Ki stood at 0.026 µM.

In the case of `CN(C)CCNC(=O)c1cccc(-c2cc(CCc3n[nH]c(=O)c4c3CCCC4)ccc2F)c1` [Example 271, N-(2-(dimethylamino)ethyl)-2′-fluoro-5′-(2-(4-oxo-3,4,5,6,7,8-hexahydrophthalazin-1-yl)ethyl)-1,1′-biphenyl-3-carboxamide], the Ki under setting [1] was 1.14 µM.

Turning to `CC(c1ccc(F)c(N2CCC2=O)c1)c1n[nH]c(=O)c2c1CCCC2` (stereo not shown) [Example 451, 4-(1-(4-fluoro-3-(2-oxoazetidin-1-yl)phenyl)ethyl)-5,6,7,8-tetrahydrophthalazin-1(2H)-one], the Ki under setting [1] was 0.056 µM.

With `COc1ccc(CCNC(=O)c2cccc(Cc3n[nH]c(=O)c4c3CCCC4)c2)cc1OC` [Example 405, N-(2-(3,4-dimethoxyphenyl)ethyl)-3-((4-oxo-3,4,5,6,7,8-hexahydrophthalazin-1-yl)methyl)benzamide], under setting [1], the Ki turned out to be 0.019 µM.

`O=C(CCc1ccccc1)Nc1cccc(Cc2n[nH]c(=O)c3c2CCCC3)c1` [Example 143, N-(3-((4-oxo-3,4,5,6,7,8-hexahydrophthalazin-1-yl)methyl)phenyl)-3-phenylpropanamide]: the Ki under setting [1] was found to be 0.078 µM.

Regarding `Cc1cc(C(=O)Nc2cccc(Cc3n[nH]c(=O)c4c3CCCC4)c2)c(C)o1` [Example 195, 2,5-dimethyl-N-(3-((4-oxo-3,4,5,6,7,8-hexahydrophthalazin-1-yl)methyl)phenyl)-3-furamide], the Ki under setting [1] was 0.177 µM.

Take `O=C(NCCc1ccc(-c2ccccc2)cc1)c1cccc(Cc2n[nH]c(=O)c3c2CCCC3)c1` [Example 393, N-(2-(1,1′-biphenyl-4-yl)ethyl)-3-((4-oxo-3,4,5,6,7,8-hexahydrophthalazin-1-yl)methyl)benzamide]: the Ki under setting [1] was 0.07 µM.

As to `O=C(Nc1cccc(Cc2n[nH]c(=O)c3c2CCCC3)c1)c1ccccc1Nc1ccccc1` [Example 240, 2-anilino-N-(3-((4-oxo-3,4,5,6,7,8-hexahydrophthalazin-1-yl)methyl)phenyl)benzamide], under setting [1], the Ki stood at 0.285 µM.

For `CS(=O)(=O)c1nccc(Cc2n[nH]c(=O)c3c2CCCC3)n1` [Example 69, 4-((2-(methylsulfonyl)pyrimidin-4-yl)methyl)-5,6,7,8-tetrahydrophthalazin-1(2H)-one], the Ki under setting [1] is 0.04 µM.

`CNC(=O)c1ncccc1Cc1n[nH]c(=O)c2c1CCCC2` [Example 95, N-methyl-3-((4-oxo-3,4,5,6,7,8-hexahydrophthalazin-1-yl)methyl)pyridine-2-carboxamide]: under setting [1], the Ki was found to be 1.26 µM.

On to `CC(C)(C)C(=O)N1CCN(C(=O)c2cc(Cc3n[nH]c(=O)c4c3NCCC4)ccc2F)CC1` [Example 593, 8-(3-{[4-(2,2-dimethylpropanoyl)piperazin-1-yl]carbonyl}-4-fluorobenzyl)-2,3,4,6-tetrahydropyrido[2,3-d]pyridazin-5(1H)-one], for which the inhibition constant Ki under setting [1] was 0.0013 µM.

On to `O=C(c1cccc(Cc2n[nH]c(=O)c3c2CCCC3)c1)N1CCN(C(=O)c2ccno2)CC1` [Example 60, 4-(3-((4-(isoxazol-5-ylcarbonyl)piperazin-1-yl)carbonyl)benzyl)-5,6,7,8-tetrahydrophthalazin-1(2H)-one], for which the Ki under setting [1] is 0.003 µM.

Take `O=C(c1cc(Cc2n[nH]c(=O)c3c2CCCC3)ccc1F)N1CCN(c2ncccn2)CC1` [Example 490, 4-(4-fluoro-3-((4-pyrimidin-2-ylpiperazin-1-yl)carbonyl)benzyl)-5,6,7,8-tetrahydrophthalazin-1(2H)-one]: the Ki under setting [1] amounted to 0.0007 µM.

Turning to `COc1cc(CCNC(=O)c2cccc(Cc3n[nH]c(=O)c4c3CCCC4)c2)cc(OC)c1` [Example 406, N-(2-(3,5-dimethoxyphenyl)ethyl)-3-((4-oxo-3,4,5,6,7,8-hexahydrophthalazin-1-yl)methyl)benzamide], the Ki under setting [1] turned out to be 0.042 µM.

With `CC[C@H](C(=O)Nc1cccc(Cc2n[nH]c(=O)c3c2CCCC3)c1)c1ccccc1` [Example 146, (2S)-N-(3-((4-oxo-3,4,5,6,7,8-hexahydrophthalazin-1-yl)methyl)phenyl)-2-phenylbutanamide], under setting [1], the Ki amounted to 0.678 µM.

As for `O=C(CCN1CCCCC1)Nc1cccc(Cc2n[nH]c(=O)c3c2CCCC3)c1` [Example 98, N-(3-((4-oxo-3,4,5,6,7,8-hexahydrophthalazin-1-yl)methyl)phenyl)-3-piperidin-1-ylpropanamide], the Ki under setting [1] amounted to 0.286 µM.

Take `CC(C)N(Cc1ccccc1)C(=O)c1cccc(Cc2n[nH]c(=O)c3c2CCCC3)c1` [Example 421, N-benzyl-N-isopropyl-3-((4-oxo-3,4,5,6,7,8-hexahydrophthalazin-1-yl)methyl)benzamide]: the Ki under setting [1] is 0.068 µM.

Turning to `Cc1cncc(N2CCN(C(=O)c3cc(Cc4n[nH]c(=O)c5c4NCCC5)ccc3F)CC2)n1` [Example 573, 8-(4-fluoro-3-{[4-(6-methylpyrazin-2-yl)piperazin-1-yl]carbonyl}benzyl)-2,3,4,6-tetrahydropyrido[2,3-d]pyridazin-5(1H)-one], under setting [1], the Ki turned out to be 0.0009 µM.

For the compound `O=C(Nc1ccc(N2CCOCC2)cc1)c1cccc(Cc2n[nH]c(=O)c3c2CCCC3)c1` [Example 363, N-(4-morpholin-4-ylphenyl)-3-((4-oxo-3,4,5,6,7,8-hexahydrophthalazin-1-yl)methyl)benzamide], the Ki under setting [1] was 0.132 µM.

Regarding `COc1ccc(CCC(=O)Nc2cccc(Cc3n[nH]c(=O)c4c3CCCC4)c2)cc1` [Example 162, 3-(4-methoxyphenyl)-N-(3-((4-oxo-3,4,5,6,7,8-hexahydrophthalazin-1-yl)methyl)phenyl)propanamide], under setting [1], the Ki amounted to 0.051 µM.

As for `CCCNC(=O)Nc1cc(Cc2n[nH]c(=O)c3c2CCCC3)ccc1F` [Example 539, N-{2-fluoro-5-[(4-oxo-3,4,5,6,7,8-hexahydrophthalazin-1-yl)methyl]phenyl}-N′-propylurea], the Ki under setting [1] worked out at 0.191 µM.

Take `COc1ccc(C)cc1NC(=O)c1cccc(Cc2n[nH]c(=O)c3c2CCCC3)c1` [Example 351, N-(2-methoxy-5-methylphenyl)-3-((4-oxo-3,4,5,6,7,8-hexahydrophthalazin-1-yl)methyl)benzamide]: the inhibitory constant (Ki) under setting [1] turned out to be 0.277 µM.

Regarding `COc1cccc(CCC(=O)Nc2cccc(Cc3n[nH]c(=O)c4c3CCCC4)c2)c1` [Example 161, 3-(3-methoxyphenyl)-N-(3-((4-oxo-3,4,5,6,7,8-hexahydrophthalazin-1-yl)methyl)phenyl)propanamide], the Ki under setting [1] was 0.064 µM.

Regarding `O=C(Nc1cccc(Cc2n[nH]c(=O)c3c2CCCC3)c1)c1ccc[nH]1` [Example 200], the Ki under setting [1] was found to be 0.158 µM.

With `CCCOc1ccc(C(=O)Nc2cccc(Cc3n[nH]c(=O)c4c3CCCC4)c2)cc1` [Example 235, N-(3-((4-oxo-3,4,5,6,7,8-hexahydrophthalazin-1-yl)methyl)phenyl)-4-propoxybenzamide], the Ki under setting [1] was 0.198 µM.

Turning to `O=C(Nc1ccc(Cc2n[nH]c(=O)c3c2CCCC3)cn1)c1ccccc1` [Example 106, N-(5-((4-oxo-3,4,5,6,7,8-hexahydrophthalazin-1-yl)methyl)pyridin-2-yl)benzamide], the Ki under setting [1] came out at 0.29 µM.
